Assay results as given in the Kinase Knowledgebase extract (Sharma et al. 2016).

Molecular target: ROCK2 (human) (UniProt O75116)
Assay: Inhibition of ROCK2 Kinase Activity

ROCK2 (human), sequence (O75116 whole entry, looked up): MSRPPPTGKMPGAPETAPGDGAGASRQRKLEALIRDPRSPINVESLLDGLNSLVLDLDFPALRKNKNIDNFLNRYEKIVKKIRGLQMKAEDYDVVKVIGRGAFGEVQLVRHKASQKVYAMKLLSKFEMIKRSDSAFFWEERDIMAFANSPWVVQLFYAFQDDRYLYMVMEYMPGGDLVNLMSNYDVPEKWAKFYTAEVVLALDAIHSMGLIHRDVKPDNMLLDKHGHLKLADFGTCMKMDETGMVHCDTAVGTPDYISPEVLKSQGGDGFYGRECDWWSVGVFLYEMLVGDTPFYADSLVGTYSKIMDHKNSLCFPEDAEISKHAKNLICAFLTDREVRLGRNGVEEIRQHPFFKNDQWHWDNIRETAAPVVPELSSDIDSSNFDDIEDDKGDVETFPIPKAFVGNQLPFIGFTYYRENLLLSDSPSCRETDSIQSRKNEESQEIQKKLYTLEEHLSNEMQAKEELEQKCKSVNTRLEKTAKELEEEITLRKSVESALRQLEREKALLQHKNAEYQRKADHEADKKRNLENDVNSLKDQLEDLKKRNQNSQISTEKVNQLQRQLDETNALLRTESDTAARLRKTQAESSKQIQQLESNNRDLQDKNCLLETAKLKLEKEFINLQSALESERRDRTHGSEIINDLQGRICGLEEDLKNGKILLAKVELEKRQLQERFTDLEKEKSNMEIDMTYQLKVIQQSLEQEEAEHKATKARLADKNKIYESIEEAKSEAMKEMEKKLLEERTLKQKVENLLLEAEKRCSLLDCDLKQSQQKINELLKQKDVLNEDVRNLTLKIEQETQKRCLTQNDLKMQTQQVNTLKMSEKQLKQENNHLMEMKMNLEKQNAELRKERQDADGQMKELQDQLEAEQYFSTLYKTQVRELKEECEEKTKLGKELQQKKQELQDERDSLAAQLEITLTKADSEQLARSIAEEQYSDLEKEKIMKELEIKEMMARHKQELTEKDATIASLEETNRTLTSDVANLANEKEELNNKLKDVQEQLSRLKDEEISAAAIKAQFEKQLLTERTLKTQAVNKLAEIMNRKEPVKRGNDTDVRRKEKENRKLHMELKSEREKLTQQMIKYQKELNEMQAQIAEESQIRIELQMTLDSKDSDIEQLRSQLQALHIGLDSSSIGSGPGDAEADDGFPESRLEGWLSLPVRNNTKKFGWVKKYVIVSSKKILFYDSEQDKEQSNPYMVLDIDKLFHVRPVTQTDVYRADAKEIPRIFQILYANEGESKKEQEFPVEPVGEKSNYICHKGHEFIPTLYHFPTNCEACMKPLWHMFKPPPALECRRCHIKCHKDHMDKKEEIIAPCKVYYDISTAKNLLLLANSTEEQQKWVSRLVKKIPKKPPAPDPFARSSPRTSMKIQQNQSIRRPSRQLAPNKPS

Row | SMILES | IC50
1 | O=C(Nc1cc2cc[nH]c(=O)c2cc1Cl)[C@H](O)c1cccc(Cl)c1 | < 1 µM
2 | COc1cc2c(=O)[nH]ccc2cc1NC(=O)[C@@H](OC)c1ccccc1 | < 1 µM
3 | CC[C@@H](C)[C@H](N)C(=O)Nc1cc2cc[nH]c(=O)c2cc1Cl | < 1 µM
4 | N[C@@H](C(=O)Nc1ccc2c(=O)[nH]ccc2c1)c1ccccc1 | < 1 µM
5 | O=C(COc1ccc(Cl)cc1)Nc1ccc2c(=O)[nH]ccc2c1 | < 1 µM
6 | O=C(Nc1ccc2c(=O)[nH]ccc2c1Cl)[C@H]1CNC[C@@H]1c1ccccc1 | < 1 µM
7 | CCOCCCNC(C(=O)Nc1cc2cc[nH]c(=O)c2cc1Cl)c1ccccc1 (stereo not given) | < 1 µM
8 | O=C(Nc1ccc2c(=O)[nH]ccc2c1)[C@H]1CCCNC1 | < 1 µM
9 | CC(C)[C@@H](O)C(=O)Nc1cc2cc[nH]c(=O)c2cc1Cl | < 1 µM
10 | O=C(Nc1cc2cc[nH]c(=O)c2cc1Cl)[C@H]1CCCCN1 | < 1 µM
11 | CC(C)(Oc1ccc(Cl)cc1)C(=O)Nc1ccc2c(=O)[nH]ccc2c1 | < 1 µM
12 | O=C(Nc1cc2cc[nH]c(=O)c2cc1Cl)c1ccccc1Br | < 1 µM
13 | O=C(Nc1cc2cc[nH]c(=O)c2cc1Cl)C1(Cc2ccccc2)CCNCC1 | < 1 µM
14 | O=C(Nc1cc2cc[nH]c(=O)c2cc1Cl)c1ccc([N+](=O)[O-])cc1Cl | < 1 µM
15 | O=C(Nc1cc2cc[nH]c(=O)c2cc1Cl)c1ccc([N+](=O)[O-])cc1C(F)(F)F | < 1 µM
16 | O=C(Nc1cc2cc[nH]c(=O)c2cc1Cl)[C@@H]1CCCCN1 | < 1 µM
17 | CC(C)(N)C(=O)Nc1ccc2c(=O)[nH]ccc2c1 | < 1 µM
18 | O=C(CNCc1ccccc1)Nc1ccc2c(=O)[nH]cnc2c1 | < 1 µM
19 | N[C@H](Cc1ccc2ccccc2c1)C(=O)Nc1cc2cc[nH]c(=O)c2cc1Cl | < 1 µM
20 | O=C(Nc1cc2cc[nH]c(=O)c2cc1Cl)[C@H]1CNC[C@@H]1c1ccc(Cl)cc1 | < 1 µM
21 | O=C(CNCc1cccnc1)Nc1cc2cc[nH]c(=O)c2cc1Cl | < 1 µM
22 | N[C@H](Cc1ccncc1)C(=O)Nc1cc2cc[nH]c(=O)c2cc1Cl | < 1 µM
23 | N[C@@H](C(=O)Nc1ccc2c(=O)[nH]ccc2c1)C1CCCCC1 | < 1 µM
24 | O=C(Nc1cc2cc[nH]c(=O)c2cc1Cl)[C@@H]1CCCNC1 | < 1 µM
25 | CO[C@H](C(=O)Nc1cc2cc[nH]c(=O)c2cc1Cl)c1ccccc1 | < 1 µM
26 | O=C(Nc1cc2cc[nH]c(=O)c2cc1Cl)C1CCN(C2CCCCC2)CC1 | < 1 µM
27 | CS(=O)(=O)c1ccc(C(=O)Nc2cc3cc[nH]c(=O)c3cc2Cl)c(Cl)c1 | < 1 µM
28 | CC(C)OC(=O)Nc1cc2cc[nH]c(=O)c2cc1Cl | < 1 µM

Row | SMILES | IC50
29 | CC(C)(C(=O)Nc1cc2cc[nH]c(=O)c2cc1Cl)c1ccccc1 | < 1 µM
30 | O=C(CNCC1CCCCC1)Nc1ccc2c(=O)[nH]cnc2c1 | < 1 µM
31 | O=C(Nc1cc2cc[nH]c(=O)c2cc1Cl)[C@H](O)C1CCCCC1 | < 1 µM
32 | CC(NCCc1cccs1)C(=O)Nc1cc2cc[nH]c(=O)c2cc1Cl (stereo not given) | < 1 µM
33 | O=C(Nc1cc2cc[nH]c(=O)c2cc1Cl)C1CNCCN1 (stereo not given) | < 1 µM
34 | O=C(Nc1cc2cc[nH]c(=O)c2cc1Cl)c1ccc(N2CCOCC2)cc1Cl | < 1 µM
35 | O=C(O)C(C(=O)Nc1cc2cc[nH]c(=O)c2cc1Cl)c1ccccc1 (stereo not given) | < 1 µM
36 | O=c1[nH]ccc2cc(NC(=O)[C@H]3CC[C@@H](C(=O)O)CC3)c(Cl)cc12 | < 1 µM
37 | C[C@H]1CN(C)CC[C@@H]1C(=O)Nc1cc2cc[nH]c(=O)c2cc1Cl | < 1 µM
38 | Cc1ccc(C(=O)Nc2cc3cc[nH]c(=O)c3cc2Cl)c(Br)c1 | < 1 µM
39 | O=C(CNCc1ccncc1)Nc1cc2cc[nH]c(=O)c2cc1Cl | < 1 µM
40 | O=C(Nc1cc2cc[nH]c(=O)c2cc1Cl)[C@H]1CCCO1 | < 1 µM
41 | CS(=O)(=O)c1ccc(C(=O)Nc2cc3cc[nH]c(=O)c3cc2Cl)cc1 | < 1 µM
42 | N[C@H]1C[C@@H](C(=O)Nc2cc3cc[nH]c(=O)c3cc2Cl)C1 | < 1 µM
43 | CC(C(=O)Nc1cc2cc[nH]c(=O)c2cc1Cl)N1CCSCC1 (stereo not given) | < 1 µM
44 | CC1(C(=O)Nc2cc3cc[nH]c(=O)c3cc2Cl)CCN(S(C)(=O)=O)CC1 | < 1 µM
45 | O=C(Nc1cc2cc[nH]c(=O)c2cc1Cl)[C@H](O)c1ccccc1Cl | < 1 µM
46 | O=C(Nc1cc2cc[nH]c(=O)c2cc1Cl)C1CNCC(c2ccccc2)C1 (stereo not given) | < 1 µM
47 | O=C(Nc1cc2cc[nH]c(=O)c2cc1Cl)C1(c2ccccc2)CCNCC1 | < 1 µM
48 | CN1CCN(Cc2ccccc2C(=O)Nc2cc3cc[nH]c(=O)c3cc2Cl)CC1 | < 1 µM
49 | O=C(CNC1CCCc2ccccc21)Nc1cc2cc[nH]c(=O)c2cc1Cl (stereo not given) | < 1 µM
50 | O=C(Nc1cc2cc[nH]c(=O)c2cc1Cl)C1CCOCC1 | < 1 µM
51 | COc1cccc(CC(=O)Nc2ccc3c(=O)[nH]ccc3c2)c1 | < 1 µM
52 | O=C(CNCCc1cccs1)Nc1ccc2c(=O)[nH]cnc2c1 | < 1 µM
53 | CC(C)O[C@@H](C(=O)Nc1cc2cc[nH]c(=O)c2cc1Cl)c1ccccc1 | < 1 µM
54 | C[C@](O)(C(=O)Nc1cc2cc[nH]c(=O)c2cc1Cl)c1ccc(Cl)cc1 | < 1 µM
55 | N[C@H]1CCC[C@@H](C(=O)Nc2cc3cc[nH]c(=O)c3cc2Cl)C1 | < 1 µM
